In US20220281848A1, “PYRAZOLE-SUBSTITUTED PYRROLIDINONES AS HERBICIDES” (FMC Corporation, priority 2019, published 2022):

Assays:
Assay type in all cases: in vivo
[1] = test system: barnyardgrass (Echinochloa crus-galli, ECHCG); test: Test A pre-emergence, barnyardgrass; details: after 13 d
In short: (§1)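 Damage rated 0–100 (100 = total) 13 d after spraying. Application was one day post-sowing at 15.625, 62.5 or 250 g/ha, formulated in 50:50 acetone/water plus 0.5% Tween 20. Pots held in glasshouse at 24/16 °C day/night, 14 h light, 65% humidity, watered twice daily.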

[2] = test system: ivy-leaved morning glory (Ipomoea hederacea, IPOHE); test: Test A pre-emergence, ivy-leaved morning glory; details: after 13 d
In short: as §1

[3] = test system: velvetleaf (Abutilon theophrasti, ABUTH); test: Test A pre-emergence, velvetleaf; details: after 13 d
In short: as §1

corn (Zea mays, ZEAMX) = test: Test A post-emergence, corn; details: after 13 d
In short: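 Foliar application to 8-day-old seedlings at 15.625, 62.5 or 250 g/ha; phytotoxicity scored 0–100 after 13 d.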

plants = test: Test D post-emergence, other plants of Tables D2 and D4; details: for ALOMY damage rating (100=total damage to plant; 0=no damage to plant) / AVEFA damage rating (100=total damage to plant; 0=no damage to plant) / BEAVA damage rating (100=total damage to plant; 0=no damage to plant) / BROTE damage rating (100=total damage to plant; 0=no damage to plant) / BRSNN damage rating (100=total damage to plant; 0=no damage to plant) / CHEAL damage rating (100=total damage to plant; 0=no damage to plant) / GALAP damage rating (100=total damage to plant; 0=no damage to plant) / HORVW damage rating (100=total damage to plant; 0=no damage to plant) / KCHSC damage rating (100=total damage to plant; 0=no damage to plant) / LOLPE damage rating (100=total damage to plant; 0=no damage to plant) / POAAN damage rating (100=total damage to plant; 0=no damage to plant) / POLCO damage rating (100=total damage to plant; 0=no damage to plant) / STEME damage rating (100=total damage to plant; 0=no damage to plant) / VERPE damage rating (100=total damage to plant; 0=no damage to plant): "Cereals" Postemergent, evaluated after 15 d
In short: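 Seeds treated with herbicide safener; sown in soil; glasshouse, 16 h light, 65% humidity. Sprayed day 1 (pre) or ~day 12 (post). Spray in 0.2% v/v adjuvant. Scored 0–100 damage: 20 DAA pre, 15 d post.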

[4] = post-emergence, rate 130, evaluated after 15 d
[5] = post-emergence, rate 250, evaluated after 15 d
[6] = post-emergence, rate 500, evaluated after 15 d

CN1C[C@H](c2nn(C)c3c(F)cccc23)[C@@H](C(=O)Nc2cccc(F)c2F)C1=O [Compound 2]
damage to plant (100=total damage; 0=no damage) ECHCG ([1]; Pre-Emergence at 15.625 g/ha): 90 | damage to plant (100=total damage; 0=no damage) ECHCG ([1]; Pre-Emergence at 62.5 g/ha): 90 | damage to plant (100=total damage; 0=no damage) ECHCG ([1]; Pre-Emergence at 250 g/ha): 90 | damage to plant (100=total damage; 0=no damage) IPOHE ([2]; Pre-Emergence at 15.625 g/ha): 0 | damage to plant (100=total damage; 0=no damage) IPOHE ([2]; Pre-Emergence at 62.5 g/ha): 0 | damage to plant (100=total damage; 0=no damage) IPOHE ([2]; Pre-Emergence at 250 g/ha): 0 | damage to plant (100=total damage; 0=no damage) ABUTH ([3]; Pre-Emergence at 15.625 g/ha): 0 | damage to plant (100=total damage; 0=no damage) ABUTH ([3]; Pre-Emergence at 62.5 g/ha): 0 | damage to plant (100=total damage; 0=no damage) ABUTH ([3]; Pre-Emergence at 250 g/ha): 0 | damage to plant (100=total damage; 0=no damage) ZEAMX (corn (Zea mays, ZEAMX); Post-Emergence at 15.625 g/ha): 10 | damage to plant (100=total damage; 0=no damage) ZEAMX (corn (Zea mays, ZEAMX); Post-Emergence at 62.5 g/ha): 0 | damage to plant (100=total damage; 0=no damage) ZEAMX (corn (Zea mays, ZEAMX); Post-Emergence at 250 g/ha): 40 | ALOMY damage rating (100=total damage to plant; 0=no damage to plant) (plants; Rates 130): 0 | ALOMY damage rating (100=total damage to plant; 0=no damage to plant) (plants; Rates 250): 10 | ALOMY damage rating (100=total damage to plant; 0=no damage to plant) (plants; Rates 500): 30 | AVEFA damage rating (100=total damage to plant; 0=no damage to plant) (plants; Rates 130): 0 | AVEFA damage rating (100=total damage to plant; 0=no damage to plant) (plants; Rates 250): 10 | AVEFA damage rating (100=total damage to plant; 0=no damage to plant) (plants; Rates 500): 40 | BEAVA damage rating (100=total damage to plant; 0=no damage to plant) (plants; Rates 130): 10 | BEAVA damage rating (100=total damage to plant; 0=no damage to plant) (plants; Rates 250): 20 | BEAVA damage rating (100=total damage to plant; 0=no damage to plant) (plants; Rates 500): 10 | BROTE damage rating (100=total damage to plant; 0=no damage to plant) (plants; Rates 130): 0 | BROTE damage rating (100=total damage to plant; 0=no damage to plant) (plants; Rates 250): 0 | BROTE damage rating (100=total damage to plant; 0=no damage to plant) (plants; Rates 500): 30 | BRSNN damage rating (100=total damage to plant; 0=no damage to plant) (plants; Rates 130): 40 | BRSNN damage rating (100=total damage to plant; 0=no damage to plant) (plants; Rates 250): 50 | BRSNN damage rating (100=total damage to plant; 0=no damage to plant) (plants; Rates 500): 40 | CHEAL damage rating (100=total damage to plant; 0=no damage to plant) (plants; Rates 250): 0 | CHEAL damage rating (100=total damage to plant; 0=no damage to plant) (plants; Rates 500): 20 | GALAP damage rating (100=total damage to plant; 0=no damage to plant) (plants; Rates 130): 0 | GALAP damage rating (100=total damage to plant; 0=no damage to plant) (plants; Rates 250): 10 | GALAP damage rating (100=total damage to plant; 0=no damage to plant) (plants; Rates 500): 0 | HORVW damage rating (100=total damage to plant; 0=no damage to plant) (plants; Rates 130): 0 | HORVW damage rating (100=total damage to plant; 0=no damage to plant) (plants; Rates 250): 20 | HORVW damage rating (100=total damage to plant; 0=no damage to plant) (plants; Rates 500): 30 | KCHSC damage rating (100=total damage to plant; 0=no damage to plant) (plants; Rates 130): 0 | KCHSC damage rating (100=total damage to plant; 0=no damage to plant) (plants; Rates 250): 0 | KCHSC damage rating (100=total damage to plant; 0=no damage to plant) (plants; Rates 500): 0 | LOLPE damage rating (100=total damage to plant; 0=no damage to plant) (plants; Rates 130): 0 | LOLPE damage rating (100=total damage to plant; 0=no damage to plant) (plants; Rates 250): 0 | LOLPE damage rating (100=total damage to plant; 0=no damage to plant) (plants; Rates 500): 0 | POAAN damage rating (100=total damage to plant; 0=no damage to plant) (plants; Rates 130): 20 | POAAN damage rating (100=total damage to plant; 0=no damage to plant) (plants; Rates 250): 70 | POAAN damage rating (100=total damage to plant; 0=no damage to plant) (plants; Rates 500): 80 | POLCO damage rating (100=total damage to plant; 0=no damage to plant) (plants; Rates 130): 0 | POLCO damage rating (100=total damage to plant; 0=no damage to plant) (plants; Rates 250): 20 | POLCO damage rating (100=total damage to plant; 0=no damage to plant) (plants; Rates 500): 40 | STEME damage rating (100=total damage to plant; 0=no damage to plant) (plants; Rates 130): 0 | STEME damage rating (100=total damage to plant; 0=no damage to plant) (plants; Rates 250): 0 | STEME damage rating (100=total damage to plant; 0=no damage to plant) (plants; Rates 500): 0 | VERPE damage rating (100=total damage to plant; 0=no damage to plant) (plants; Rates 130): 0 | VERPE damage rating (100=total damage to plant; 0=no damage to plant) (plants; Rates 250): 10 | VERPE damage rating (100=total damage to plant; 0=no damage to plant) (plants; Rates 500): 0 | damage to plant (100=total damage to plant; 0=no damage to plant), ABUTH (plants; post-emergence, ABUTH, rate 500, evaluated after 15 d): 0 | damage to plant (100=total damage to plant; 0=no damage to plant), AMARE (plants; [4]): 0 | damage to plant (100=total damage to plant; 0=no damage to plant), AMARE (plants; [5]): 10 | damage to plant (100=total damage to plant; 0=no damage to plant), AMARE (plants; [6]): 30 | damage to plant (100=total damage to plant; 0=no damage to plant), BIDPI (plants; [4]): 0 | damage to plant (100=total damage to plant; 0=no damage to plant), BIDPI (plants; [5]): 0 | damage to plant (100=total damage to plant; 0=no damage to plant), BIDPI (plants; [6]): 10 | damage to plant (100=total damage to plant; 0=no damage to plant), BRAPL (plants; [4]): 70 | damage to plant (100=total damage to plant; 0=no damage to plant), BRAPL (plants; [5]): 80 | damage to plant (100=total damage to plant; 0=no damage to plant), BRAPL (plants; [6]): 80 | damage to plant (100=total damage to plant; 0=no damage to plant), CYPES (plants; [4]): 0 | damage to plant (100=total damage to plant; 0=no damage to plant), CYPES (plants; [5]): 0 | damage to plant (100=total damage to plant; 0=no damage to plant), CYPES (plants; [6]): 0 | damage to plant (100=total damage to plant; 0=no damage to plant), DIGSA (plants; [4]): 60 | damage to plant (100=total damage to plant; 0=no damage to plant), DIGSA (plants; [5]): 70 | damage to plant (100=total damage to plant; 0=no damage to plant), DIGSA (plants; [6]): 70 | damage to plant (100=total damage to plant; 0=no damage to plant), ECHCG (plants; [5]): 80 | damage to plant (100=total damage to plant; 0=no damage to plant), ECHCG (plants; [6]): 80 | damage to plant (100=total damage to plant; 0=no damage to plant), ELEIN (plants; [4]): 0 | damage to plant (100=total damage to plant; 0=no damage to plant), ELEIN (plants; [5]): 0 | damage to plant (100=total damage to plant; 0=no damage to plant), ELEIN (plants; [6]): 0 | damage to plant (100=total damage to plant; 0=no damage to plant), EPHHL (plants; [4]): 0 | damage to plant (100=total damage to plant; 0=no damage to plant), EPHHL (plants; [5]): 10 | damage to plant (100=total damage to plant; 0=no damage to plant), EPHHL (plants; [6]): 40 | damage to plant (100=total damage to plant; 0=no damage to plant), GLXMA (plants; [4]): 0 | damage to plant (100=total damage to plant; 0=no damage to plant), GLXMA (plants; [5]): 0 | damage to plant (100=total damage to plant; 0=no damage to plant), GLXMA (plants; [6]): 10 | damage to plant (100=total damage to plant; 0=no damage to plant), IPOHE (plants; [4]): 10 | damage to plant (100=total damage to plant; 0=no damage to plant), IPOHE (plants; [5]): 20 | damage to plant (100=total damage to plant; 0=no damage to plant), IPOHE (plants; [6]): 30 | damage to plant (100=total damage to plant; 0=no damage to plant), ORYSA (plants; [4]): 0 | damage to plant (100=total damage to plant; 0=no damage to plant), ORYSA (plants; [5]): 0 | damage to plant (100=total damage to plant; 0=no damage to plant), ORYSA (plants; [6]): 10 | damage to plant (100=total damage to plant; 0=no damage to plant), PANMI (plants; [4]): 0 | damage to plant (100=total damage to plant; 0=no damage to plant), PANMI (plants; [5]): 0 | damage to plant (100=total damage to plant; 0=no damage to plant), PANMI (plants; [6]): 0 | damage to plant (100=total damage to plant; 0=no damage to plant), SETFA (plants; [4]): 70 | damage to plant (100=total damage to plant; 0=no damage to plant), SETFA (plants; [5]): 70 | damage to plant (100=total damage to plant; 0=no damage to plant), SETFA (plants; [6]): 80 | damage to plant (100=total damage to plant; 0=no damage to plant), SIDSP (plants; [4]): 0 | damage to plant (100=total damage to plant; 0=no damage to plant), SIDSP (plants; [5]): 0 | damage to plant (100=total damage to plant; 0=no damage to plant), SIDSP (plants; [6]): 0 | damage to plant (100=total damage to plant; 0=no damage to plant), SORVU (plants; [4]): 0 | damage to plant (100=total damage to plant; 0=no damage to plant), SORVU (plants; [5]): 0 | damage to plant (100=total damage to plant; 0=no damage to plant), SORVU (plants; [6]): 0
